{"source": "ChEMBL document CHEMBL4371080", "about": "“Multiple weak intercalation as a strategy for the inhibition of polymerases” (Bioorg Med Chem Lett, 2019)", "note": "pIC50: −log10 of the molar value. Where a SMILES comes first, the peptide text is derived from it. Bridges are numbered along the chain shown (N, C = ends). [ ]: non-standard residue; d: D form. The star is where a group is joined. ξ: configuration not given here. Quinoxaline2carbonyl = O=C(c1cnc2ccccc2n1)*; ξDap = NCC(N)C(=O)O"}
{"target": "Human immunodeficiency virus type 1 reverse transcriptase (Human immunodeficiency virus 1) (UniProt Q72547)", "experiment": "Inhibition of HIV1 reverse transcriptase assessed as reduction in [3H]dTTP incorporation by measuring proportional residual activity ratio at 300 uM using poly(rA)/oligo(dT) as template/primer after 30 mins by scintillation counting method"}
{"smiles": "NC(=O)C[C@@H](NC(=O)[C@H](N)Cc1c[nH]c2ccccc12)C(=O)N[C@@H](Cc1c[nH]c2ccccc12)C(N)=O", "Ratio": 0.34}
{"smiles": "NC(=O)[C@@H](Cc1c[nH]c2ccccc12)NC(=O)CNC(=O)[C@@H](N)Cc1c[nH]c2ccccc12", "Ratio": 0.74}
{"smiles": "NC(=O)[C@H](Cc1c[nH]c2ccccc12)NC(=O)CCCNC(=O)[C@H](N)Cc1c[nH]c2ccccc12", "Ratio": 0.43}
{"smiles": "NC(=O)[C@@H](Cc1c[nH]c2ccccc12)NC(=O)[C@H](N)Cc1c[nH]c2ccccc12", "Ratio": 0.7}
{"smiles": "NC(=O)[C@@H](Cc1c[nH]c2ccccc12)NC(=O)CCCNC(=O)[C@H](N)Cc1c[nH]c2ccccc12", "Ratio": 0.36}
{"smiles": "NC(=O)C[C@@H](NC(=O)[C@@H](N)Cc1c[nH]c2ccccc12)C(=O)N[C@@H](Cc1c[nH]c2ccccc12)C(N)=O", "Ratio": 0.6}
{"smiles": "NC(=O)[C@@H](Cc1c[nH]c2ccccc12)NC(=O)[C@@H](N)Cc1c[nH]c2ccccc12", "Ratio": 0.45}
{"smiles": "NC(=O)[C@@H](Cc1c[nH]c2ccccc12)NC(=O)CNC(=O)[C@H](N)Cc1c[nH]c2ccccc12", "Ratio": 0.76}
{"smiles": "NC(=O)C[C@H](NC(=O)[C@H](N)Cc1c[nH]c2ccccc12)C(=O)N[C@H](Cc1c[nH]c2ccccc12)C(N)=O", "Ratio": 0.69}
{"smiles": "NC(=O)C[C@H](NC(=O)[C@@H](N)Cc1c[nH]c2ccccc12)C(=O)N[C@H](Cc1c[nH]c2ccccc12)C(N)=O", "Ratio": 0.44}
{"smiles": "NC(=O)C[C@@H](NC(=O)[C@@H](N)Cc1c[nH]c2ccccc12)C(=O)N[C@H](Cc1c[nH]c2ccccc12)C(N)=O", "Ratio": 0.35}
{"smiles": "NC(=O)[C@H](Cc1c[nH]c2ccccc12)NC(=O)CNC(=O)[C@H](N)Cc1c[nH]c2ccccc12", "Ratio": 0.63}
{"smiles": "NC(=O)C[C@@H](NC(=O)[C@H](N)Cc1c[nH]c2ccccc12)C(=O)N[C@H](Cc1c[nH]c2ccccc12)C(N)=O", "Ratio": 0.47}
{"smiles": "NC(=O)[C@H](Cc1c[nH]c2ccccc12)NC(=O)[C@H](N)Cc1c[nH]c2ccccc12", "Ratio": 0.61}
{"smiles": "NC(=O)C[C@H](NC(=O)[C@@H](N)Cc1c[nH]c2ccccc12)C(=O)N[C@@H](Cc1c[nH]c2ccccc12)C(N)=O", "Ratio": 0.62}
{"smiles": "NC(=O)C[C@H](NC(=O)[C@H](N)Cc1c[nH]c2ccccc12)C(=O)N[C@@H](Cc1c[nH]c2ccccc12)C(N)=O", "Ratio": 0.69}
{"smiles": "NC(=O)[C@H](Cc1c[nH]c2ccccc12)NC(=O)[C@@H](N)Cc1c[nH]c2ccccc12", "Ratio": 0.65}
{"smiles": "NC(=O)[C@H](Cc1c[nH]c2ccccc12)NC(=O)CNC(=O)[C@@H](N)Cc1c[nH]c2ccccc12", "Ratio": 0.4}
{"smiles": "NC(=O)[C@@H](Cc1c[nH]c2ccccc12)NC(=O)CCNC(=O)[C@@H](N)Cc1c[nH]c2ccccc12", "Ratio": 0.46}
{"target": "Human immunodeficiency virus type 1 reverse transcriptase (Human immunodeficiency virus 1) (UniProt Q72547)", "experiment": "Inhibition of HIV1 reverse transcriptase assessed as reduction in [3H]dTTP incorporation by measuring proportional residual activity ratio at 20 uM using poly(rA)/oligo(dT) as template/primer after 30 mins by scintillation counting method relative to control"}
{"smiles": "NCC1NC(=O)C[C@@H](C(N)=O)NC(=O)C(CNC(=O)c2cnc3ccccc3n2)NC(=O)C(CNC(=O)c2cnc3ccccc3n2)NC(=O)CNC(=O)C(CNC(=O)c2cnc3ccccc3n2)NC(=O)CNC1=O", "note": "(stereo partly drawn) ([ξDap]G[ξDap](Quinoxaline2carbonyl)G[ξDap](Quinoxaline2carbonyl)[ξDap](Quinoxaline2carbonyl)D-NH2; lactam N-7)", "Ratio": 0.15}
{"smiles": "NCC1NC(=O)C[C@@H](C(N)=O)NC(=O)CNC(=O)CNC(=O)C(CNC(=O)c2cnc3ccccc3n2)NC(=O)CNC(=O)CNC1=O", "note": "(stereo partly specified) ([ξDap]GG[ξDap](Quinoxaline2carbonyl)GGD-NH2; lactam N-7)", "Ratio": 0.66}
{"smiles": "NCC1NC(=O)C[C@@H](C(N)=O)NC(=O)CNC(=O)CNC(=O)C(CNC(=O)c2cnc3ccccc3n2)NC(=O)C(CNC(=O)c2cnc3ccccc3n2)NC(=O)CNC1=O", "note": "(stereo partly specified) ([ξDap]G[ξDap](Quinoxaline2carbonyl)[ξDap](Quinoxaline2carbonyl)GGD-NH2; lactam N-7)", "Ratio": 0.38}
{"smiles": "NCC1NC(=O)C[C@@H](C(N)=O)NC(=O)CNC(=O)C(CNC(=O)c2cnc3ccccc3n2)NC(=O)C(CNC(=O)c2cnc3ccccc3n2)NC(=O)CNC(=O)C(CNC(=O)c2cnc3ccccc3n2)NC1=O", "note": "(stereo partly specified) ([ξDap][ξDap](Quinoxaline2carbonyl)G[ξDap](Quinoxaline2carbonyl)[ξDap](Quinoxaline2carbonyl)GD-NH2; lactam N-7)", "Ratio": 0.09}
{"smiles": "NCC1NC(=O)C[C@@H](C(N)=O)NC(=O)C(CNC(=O)c2cnc3ccccc3n2)NC(=O)CNC(=O)C(CNC(=O)c2cnc3ccccc3n2)NC(=O)C(CNC(=O)c2cnc3ccccc3n2)NC(=O)CNC1=O", "note": "(stereo partly drawn) ([ξDap]G[ξDap](Quinoxaline2carbonyl)[ξDap](Quinoxaline2carbonyl)G[ξDap](Quinoxaline2carbonyl)D-NH2; lactam N-7)", "Ratio": 0.14}
{"smiles": "NCC1NC(=O)C[C@@H](C(N)=O)NC(=O)C(CNC(=O)c2cnc3ccccc3n2)NC(=O)CNC(=O)CNC(=O)C(CNC(=O)c2cnc3ccccc3n2)NC(=O)C(CNC(=O)c2cnc3ccccc3n2)NC1=O", "note": "(stereo partly drawn) ([ξDap][ξDap](Quinoxaline2carbonyl)[ξDap](Quinoxaline2carbonyl)GG[ξDap](Quinoxaline2carbonyl)D-NH2; lactam N-7)", "Ratio": 0.06}
{"smiles": "NCC1NC(=O)C[C@@H](C(N)=O)NC(=O)CNC(=O)CNC(=O)C(CNC(=O)c2cnc3ccccc3n2)NC(=O)C(CNC(=O)c2cnc3ccccc3n2)NC(=O)C(CNC(=O)c2cnc3ccccc3n2)NC1=O", "note": "(stereo partly specified) ([ξDap][ξDap](Quinoxaline2carbonyl)[ξDap](Quinoxaline2carbonyl)[ξDap](Quinoxaline2carbonyl)GGD-NH2; lactam N-7)", "Ratio": 0.04}
{"smiles": "NCC1NC(=O)C[C@@H](C(N)=O)NC(=O)C(CNC(=O)c2cnc3ccccc3n2)NC(=O)C(CNC(=O)c2cnc3ccccc3n2)NC(=O)CNC(=O)CNC(=O)CNC1=O", "note": "(stereo partly drawn) ([ξDap]GGG[ξDap](Quinoxaline2carbonyl)[ξDap](Quinoxaline2carbonyl)D-NH2; lactam N-7)", "Ratio": 0.71}
{"smiles": "NCC1NC(=O)C[C@@H](C(N)=O)NC(=O)CNC(=O)CNC(=O)C(CNC(=O)c2cnc3ccccc3n2)NC(=O)CNC(=O)C(CNC(=O)c2cnc3ccccc3n2)NC1=O", "note": "(stereo partly specified) ([ξDap][ξDap](Quinoxaline2carbonyl)G[ξDap](Quinoxaline2carbonyl)GGD-NH2; lactam N-7)", "Ratio": 0.11}
{"smiles": "NCC1NC(=O)C[C@@H](C(N)=O)NC(=O)CNC(=O)C(CNC(=O)c2cnc3ccccc3n2)NC(=O)C(CNC(=O)c2cnc3ccccc3n2)NC(=O)C(CNC(=O)c2cnc3ccccc3n2)NC(=O)CNC1=O", "note": "(stereo partly specified) ([ξDap]G[ξDap](Quinoxaline2carbonyl)[ξDap](Quinoxaline2carbonyl)[ξDap](Quinoxaline2carbonyl)GD-NH2; lactam N-7)", "Ratio": 0.08}
{"smiles": "NCC1NC(=O)C[C@@H](C(N)=O)NC(=O)CNC(=O)C(CNC(=O)c2cnc3ccccc3n2)NC(=O)CNC(=O)C(CNC(=O)c2cnc3ccccc3n2)NC(=O)CNC1=O", "note": "(stereo partly specified) ([ξDap]G[ξDap](Quinoxaline2carbonyl)G[ξDap](Quinoxaline2carbonyl)GD-NH2; lactam N-7)", "Ratio": 0.09}
{"smiles": "NCC1NC(=O)C[C@@H](C(N)=O)NC(=O)CNC(=O)CNC(=O)CNC(=O)C(CNC(=O)c2cnc3ccccc3n2)NC(=O)C(CNC(=O)c2cnc3ccccc3n2)NC1=O", "note": "(stereo partly specified) ([ξDap][ξDap](Quinoxaline2carbonyl)[ξDap](Quinoxaline2carbonyl)GGGD-NH2; lactam N-7)", "Ratio": 0.3}
{"smiles": "NCC1NC(=O)C[C@@H](C(N)=O)NC(=O)C(CNC(=O)c2cnc3ccccc3n2)NC(=O)C(CNC(=O)c2cnc3ccccc3n2)NC(=O)C(CNC(=O)c2cnc3ccccc3n2)NC(=O)CNC(=O)CNC1=O", "note": "(stereo partly drawn) ([ξDap]GG[ξDap](Quinoxaline2carbonyl)[ξDap](Quinoxaline2carbonyl)[ξDap](Quinoxaline2carbonyl)D-NH2; lactam N-7)", "Ratio": 0.16}
{"smiles": "NCC1NC(=O)C[C@@H](C(N)=O)NC(=O)C(CNC(=O)c2cnc3ccccc3n2)NC(=O)C(CNC(=O)c2cnc3ccccc3n2)NC(=O)CNC(=O)CNC(=O)C(CNC(=O)c2cnc3ccccc3n2)NC1=O", "note": "(stereo partly drawn) ([ξDap][ξDap](Quinoxaline2carbonyl)GG[ξDap](Quinoxaline2carbonyl)[ξDap](Quinoxaline2carbonyl)D-NH2; lactam N-7)", "Ratio": 0.13}
{"smiles": "NCC1NC(=O)C[C@@H](C(N)=O)NC(=O)CNC(=O)C(CNC(=O)c2cnc3ccccc3n2)NC(=O)CNC(=O)C(CNC(=O)c2cnc3ccccc3n2)NC(=O)C(CNC(=O)c2cnc3ccccc3n2)NC1=O", "note": "(stereo partly specified) ([ξDap][ξDap](Quinoxaline2carbonyl)[ξDap](Quinoxaline2carbonyl)G[ξDap](Quinoxaline2carbonyl)GD-NH2; lactam N-7)", "Ratio": 0.03}
{"smiles": "NCC1NC(=O)C[C@@H](C(N)=O)NC(=O)C(CNC(=O)c2cnc3ccccc3n2)NC(=O)CNC(=O)C(CNC(=O)c2cnc3ccccc3n2)NC(=O)CNC(=O)CNC1=O", "note": "(stereo partly drawn) ([ξDap]GG[ξDap](Quinoxaline2carbonyl)G[ξDap](Quinoxaline2carbonyl)D-NH2; lactam N-7)", "Ratio": 0.18}
{"smiles": "NCC1NC(=O)C[C@@H](C(N)=O)NC(=O)CNC(=O)C(CNC(=O)c2cnc3ccccc3n2)NC(=O)C(CNC(=O)c2cnc3ccccc3n2)NC(=O)CNC(=O)CNC1=O", "note": "(stereo partly specified) ([ξDap]GG[ξDap](Quinoxaline2carbonyl)[ξDap](Quinoxaline2carbonyl)GD-NH2; lactam N-7)", "Ratio": 0.57}
{"smiles": "NCC1NC(=O)C[C@@H](C(N)=O)NC(=O)CNC(=O)C(CNC(=O)c2cnc3ccccc3n2)NC(=O)CNC(=O)CNC(=O)C(CNC(=O)c2cnc3ccccc3n2)NC1=O", "note": "(stereo partly specified) ([ξDap][ξDap](Quinoxaline2carbonyl)GG[ξDap](Quinoxaline2carbonyl)GD-NH2; lactam N-7)", "Ratio": 0.02}
{"smiles": "NCC1NC(=O)C[C@@H](C(N)=O)NC(=O)C(CNC(=O)c2cnc3ccccc3n2)NC(=O)CNC(=O)CNC(=O)C(CNC(=O)c2cnc3ccccc3n2)NC(=O)CNC1=O", "note": "(stereo partly drawn) ([ξDap]G[ξDap](Quinoxaline2carbonyl)GG[ξDap](Quinoxaline2carbonyl)D-NH2; lactam N-7)", "Ratio": 0.13}
{"smiles": "NCC1NC(=O)C[C@@H](C(N)=O)NC(=O)C(CNC(=O)c2cnc3ccccc3n2)NC(=O)CNC(=O)C(CNC(=O)c2cnc3ccccc3n2)NC(=O)CNC(=O)C(CNC(=O)c2cnc3ccccc3n2)NC1=O", "note": "(stereo partly drawn) ([ξDap][ξDap](Quinoxaline2carbonyl)G[ξDap](Quinoxaline2carbonyl)G[ξDap](Quinoxaline2carbonyl)D-NH2; lactam N-7)", "Ratio": 0.18}
{"target": "Human immunodeficiency virus type 1 reverse transcriptase (Human immunodeficiency virus 1, UniProt Q72547)", "experiment": "Inhibition of HIV1 reverse transcriptase assessed as reduction in [3H]dTTP incorporation using poly(rA)/oligo(dT) as template/primer after 30 mins by scintillation counting method"}
{"smiles": "COc1cc(NC(C)CCCN)c2ncccc2c1", "note": "(stereo unspecified) [PRIMAQUINE PHOSPHATE]", "pIC50": 4.00}
{"smiles": "O=C(O)c1ccnc2ccccc12", "pIC50": 2.02}
